Tests used:
[1] = molecular target: T1, RAC-alpha serine/threonine-protein kinase (Homo sapiens, UniProt P31749); experiment: Inhibition of AKT1 in human U87 cells after 2 hrs by ELISA; type: cell-based, U-87MG ATCC
[2] = Inhibition of PKA
[3] = Antitumor activity against human myristoylated Akt1-activated rat Rat-1a cells xenografted mouse assessed as tumor growth inhibition at 50 mg/kg, qd, po for 10 days; type: functional; conditions: 240 h
[4] = molecular target: T1, RAC-alpha serine/threonine-protein kinase; experiment: Inhibition of AKT1

T1 sequence (P31749 whole entry): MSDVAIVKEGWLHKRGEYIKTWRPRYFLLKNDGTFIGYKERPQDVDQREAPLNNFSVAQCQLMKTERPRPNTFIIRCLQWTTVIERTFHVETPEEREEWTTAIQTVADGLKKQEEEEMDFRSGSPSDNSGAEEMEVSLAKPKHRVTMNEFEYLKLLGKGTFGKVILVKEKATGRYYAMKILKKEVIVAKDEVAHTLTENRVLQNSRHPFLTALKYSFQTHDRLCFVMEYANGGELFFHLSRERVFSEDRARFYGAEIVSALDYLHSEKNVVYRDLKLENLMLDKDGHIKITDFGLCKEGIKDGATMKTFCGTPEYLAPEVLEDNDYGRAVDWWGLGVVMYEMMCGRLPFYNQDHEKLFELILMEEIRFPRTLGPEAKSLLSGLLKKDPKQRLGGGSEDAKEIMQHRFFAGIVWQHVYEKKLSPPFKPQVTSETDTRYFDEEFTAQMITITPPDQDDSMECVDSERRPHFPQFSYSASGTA

Row | Structure (SMILES) | IC50 [1] [nM] | IC50 [2] [nM] | inhibition in vivo at 50 mg/kg [3] [%] | IC50 [4] [nM]
1 | N#Cc1c[nH]c2ncnc(N3CC4(CCNCC4)c4ccccc43)c12 | 50 | 3.6 | 68 | 2.4
2 | CN1CCC2(CC1)CN(c1ncnc3[nH]ccc13)c1ccccc12 | 136 | – | – | 12.7
3 | Cc1c[nH]c2ncnc(N3CC4(CCNCC4)c4ccccc43)c12 | 122 | – | – | 4.8
4 | c1ccc2c(c1)N(c1ncnc3[nH]ccc13)CC21CCNCC1 | 96 | – | – | 5.3
5 | Cc1nnc(-c2cc(Cl)ccc2Nc2ncnc3[nH]ccc23)[nH]1 | – | – | – | 171
6 | Clc1c[nH]c2ncnc(Nc3ccccc3-c3nnc[nH]3)c12 | – | – | – | 318
7 | c1ccc(-c2nnc[nH]2)c(Nc2ncnc3[nH]ccc23)c1 | – | – | – | 210
8 | Cn1ccc2c(Nc3ccccc3-c3nnc[nH]3)ncnc21 | – | – | – | > 10000
9 | Fc1ccc2c(c1)C1(CCNCC1)CN2c1ncnc2[nH]ccc12 | 75 | – | – | 3.1
10 | c1nc(N2CCc3nc[nH]c3C2)c2cc[nH]c2n1 | – | – | – | 294
11 | Cc1c[nH]c2ncnc(Nc3ccccc3-c3nnc[nH]3)c12 | – | – | – | 425
12 | CS(=O)(=O)N1CCC2(CC1)CN(c1ncnc3[nH]ccc13)c1ccc(F)cc12 | – | – | – | 3190
13 | c1ccc(Cc2c[nH]c3ncnc(N4CC5(CCNCC5)c5ccccc54)c23)cc1 | – | – | – | 1330
14 | Clc1c[nH]c2ncnc(N3CC4(CCNCC4)c4ccccc43)c12 | 64 | – | – | 5.8
15 | CC(=O)N1CCC2(CC1)CN(c1ncnc3[nH]ccc13)c1ccc(F)cc12 | – | – | – | 2790
16 | Cc1nnc(-c2ccc(Cl)cc2Nc2ncnc3[nH]ccc23)[nH]1 | – | – | – | > 10000
17 | Clc1ccc2c(c1)C1(CCNCC1)CN2c1ncnc2[nH]ccc12 | 51 | – | – | 4.8
